Read-outs that look alike come from different tables or passages of the source.

The values below come from article PMC4766439, “Discovery of novel PDE9 inhibitors capable of inhibiting Aβ aggregation as potential candidates for the treatment of Alzheimer’s disease” (Scientific Reports, 2016).

The target in one series is T1, PDE9A2 (181–506) (Homo sapiens, UniProt O76083).
T1 construct: PDE9A2 (181–506)
Nature of the series: PDE activity assay, PDE9 catalytic domain. The format is biochemical. As to conditions: means ± SD of at least three independent experiments.

The nature of series [1]: Oxygen Radical Absorbance Capacity (ORAC-FL) assay. Conditions: Trolox as standard.
Method: The assays were performed in 75 mM PBS (pH 7.4) and all the tested compounds were dissolved in DMSO and diluted with the PBS. Trolox was used as a standard (1–10 μM final concentration). The tested compounds at different concentrations (20 μL, final concentration: 2 μM) and fluorescein (FL, 120 μL, final concentration: 300 nM) were placed in the wells of a black 96-well plate. The mixture was incubated for 10 min at 37 °C and then, APPH solution (60 μL, final concentration: 12 mM diluted by 75 mM PBS) was added rapidly. […] A blank (FL + AAPH), with PBS replacing the compounds and Trolox was used for calibration in each assay. The compounds were tested at different concentrations (0.5–10 μM). The experiments were performed in three independent runs for each sample. The fluorescence measurements were normalized to that of the blank (without antioxidant). The area under the fluorescence decay curve (AUC) was calculated using the following equation (eq. 2):
where f0 is the fluorescence reading at 0 min and fi is the fluorescence reading at time i. The net AUC was calculated by the expression AUCsample − AUCblank. Regression equations between net AUC and Trolox concentrations were calculated. The final results were expressed in μM of Trolox equivalent/μM of pure compounds.
Series [2] deals with T2, Aβ1-42 (Homo sapiens, UniProt P05067).
T2 construct: the Aβ1-42 stock solution was diluted with HEPES buffer; purchased Sigma
Nature of the series: ThT assay, inhibition of Cu^2+-induced Aβ1-42 aggregation. The format is biochemical. Conditions: [Aβ1-42] = 25 μM, compound 50 μM, [Cu^2+] = 25 μM, 37 °C, 24 h.
Method: The Aβ1−42 sample (Sigma, US) was pretreated with hexafluoro-2-propanol (HFIP) and dissolved in ammonium hydroxide (1% v/v) to prepare a stock solution (2000 μM) that was aliquoted into small samples and stored at −80 °C.

The target of another series is T3, Aβ1-42 fibrils (Homo sapiens, UniProt P05067).
T3 construct: purchased Sigma
Nature of the series: ThT assay, disaggregation of Cu^2+-induced Aβ1-42 fibrils. Type of series: biochemical. As to conditions: [Aβ1-42] = 25 μM, compound 50 μM, [Cu^2+] = 25 μM, additional 24 h. As to the method:
For assaying the disaggregation of the copper (II)-induced Aβ1-42 fibrils, the Aβ1-42 stock solution was first diluted in HEPES buffer ([…], pH 6.6). The mixture of the peptide (10 μL, 25 μM final concentration) and copper (II) (10 μL, 25 μM final concentration) was then incubated at 37 °C for 24 h. Then, the test compound (10 μL, 50 μM final concentration) was added and incubated at 37 °C for an additional 24 h. Thereafter, 30 μL of the sample was diluted to a final volume of 200 μL with 50 mM glycine-NaOH buffer (pH 8.0) containing thioflavin-T (5 μM) in the dark. The detection method used was the same as that described above.

Series [3] concerns the target T2, Aβ1-42. Nature of the series: Transmission electron microscopy (TEM) assay of Aβ1-42. The format is biochemical. As to conditions: [Aβ1-42] = 25 μM, compound 50 μM, [Cu^2+] = 25 μM, 37 °C, 24 h. The method, then:
The assays were performed as reported previously. For the TEM assay of copper (II)-induced Aβ1-42 aggregation and the disaggregation of the fibrils, the samples were pretreated as described for the ThT assay. Samples (10 μL) were placed on a carbon-coated copper/rhodium grid for 2 min. Then, each grid was stained with uranyl acetate (1%, 5 μL) for 2 min. After the excess staining solution was drained off, the specimen was transferred for imaging by a transmission electron microscope (JEOL JEM-1400).

A short description of series [4]: PAMPA-BBB in vitro blood-brain barrier permeation assay. Type of series: in vitro ADME. Conditions: for Papp at 10 h, 100 μg/mL: PAMPA, read-out: Permeability; for prediction of penetration into the CNS: from PAMPA-BBB Pe.
Method: The blood–brain barrier penetration capacity of the compounds was evaluated by using the parallel artificial membrane permeation assay (PAMPA). […] The porcine brain lipid (PBL) was obtained from Avanti Polar Lipids. The donor microplate (PVDF membrane, pore size of 0.45 nm) and the acceptor microplate were from Millipore. The acceptor 96-well microplate (COSTAR) was filled with 300 μL of a PBS/EtOH mixture (7:3) and the filter membrane was impregnated with 4 μL of PBL in dodecane (20 mg/mL). The compounds were dissolved in DMSO at a concentration of 5 mg/mL and diluted with the PBS/EtOH mixture (7:3) to a concentration of 100 μg /mL. Then, 200 μL of this solution was added to the donor wells and the wells were carefully placed on the acceptor plate, which was then incubated for 10 h at 25 °C in a vibrationless environment. After the incubation, the donor plate was removed and the concentration of compounds in the acceptor wells was determined with a UV plate reader (Flexstation 3). Each sample was analyzed at five wavelengths in four wells, and at least three independent runs were performed. The results are expressed as the mean ± standard deviation. In these experiments, 13 quality control standards of known BBB permeability were included to validate the analysis set.
where Vd is the volume in the donor well, Va is the volume in acceptor well, A is the filter area, t is the permeation time, [drug]acceptor is the absorbance of the compound in the acceptor well, and [drug]equilibrium is the theoretical equilibrium absorbance.
For the next series, the target named is T4, PDE1B2 (10–487) (Homo sapiens, UniProt Q01064).
T4 construct: PDE1B2 (10–487)
Nature of the series: PDE activity assay, PDE1B2 catalytic domain. Type of series: biochemical.

The target of another series is T5, PDE2A3 (580–941) (Homo sapiens, UniProt O00408).
T5 construct: PDE2A3 (580–941)
Nature of the series: PDE activity assay, PDE2A3 catalytic domain. Type of series: biochemical.

The next series deals with T6, PDE3A (679–1087) (Homo sapiens, UniProt Q14432).
T6 construct: PDE3A (679–1087)
Nature of the series: PDE activity assay, PDE3A catalytic domain. The format is biochemical.

For another series, the target named is T7, PDE4D2 (86–413) (Homo sapiens, UniProt Q08499).
T7 construct: PDE4D2 (86–413)
Nature of the series: PDE activity assay, PDE4D2 catalytic domain. Type of series: biochemical.

Another series has as its target PDE5A1 (535–860) (Homo sapiens, UniProt O76074). Nature of the series: PDE activity assay, PDE5A1 catalytic domain. The format is biochemical.
The next series deals with T8, PDE7A1 (130–482) (Homo sapiens, UniProt Q13946).
T8 construct: PDE7A1 (130–482)
Nature of the series: PDE activity assay, PDE7A1 catalytic domain. The format is biochemical.

For a further series, the target named is T9, PDE8A1 (480–820) (Homo sapiens, UniProt O60658).
T9 construct: PDE8A1 (480–820)
Nature of the series: PDE activity assay, PDE8A1 catalytic domain. Type of series: biochemical.

The target of a further series is T10, PDE10A2 (448–789) (Homo sapiens, UniProt Q9Y233).
T10 construct: PDE10A2 (448–789)
Nature of the series: PDE activity assay, PDE10A2 catalytic domain. The format is biochemical.

A short description of series [5]: Lipid-water distribution coefficient, shake-flask 1-octanol/water. Conditions: 1-octanol/water (1:1), means of at least three independent tests. The format is physicochemical.
The mark [6] stands for this setting: PBS:EtOH (70:30), mean ± SD of three independent experiments.

T1 sequence (O76083 241-566): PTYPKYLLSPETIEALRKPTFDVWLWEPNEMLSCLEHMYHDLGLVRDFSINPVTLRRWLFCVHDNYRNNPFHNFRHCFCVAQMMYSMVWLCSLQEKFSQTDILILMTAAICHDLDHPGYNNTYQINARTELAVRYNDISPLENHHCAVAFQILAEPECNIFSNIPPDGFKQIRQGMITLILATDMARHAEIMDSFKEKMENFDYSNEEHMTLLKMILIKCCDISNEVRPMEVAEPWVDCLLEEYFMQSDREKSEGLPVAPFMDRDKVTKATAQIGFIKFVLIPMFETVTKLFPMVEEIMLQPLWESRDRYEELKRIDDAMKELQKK
T2 sequence (P05067 672-713 limits assumed): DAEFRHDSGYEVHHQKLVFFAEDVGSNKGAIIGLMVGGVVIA
T8 sequence (Q13946 130-482): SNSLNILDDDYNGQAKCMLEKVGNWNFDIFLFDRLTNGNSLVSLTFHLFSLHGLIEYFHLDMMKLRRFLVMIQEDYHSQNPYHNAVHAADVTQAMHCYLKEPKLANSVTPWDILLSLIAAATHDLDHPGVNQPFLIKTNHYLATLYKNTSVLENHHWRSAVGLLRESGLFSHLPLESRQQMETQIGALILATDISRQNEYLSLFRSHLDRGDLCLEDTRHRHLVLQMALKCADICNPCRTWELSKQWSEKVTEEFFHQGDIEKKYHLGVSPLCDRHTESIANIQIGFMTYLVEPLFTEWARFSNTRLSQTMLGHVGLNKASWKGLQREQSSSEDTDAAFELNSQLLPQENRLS
T5 sequence (O00408 580-941): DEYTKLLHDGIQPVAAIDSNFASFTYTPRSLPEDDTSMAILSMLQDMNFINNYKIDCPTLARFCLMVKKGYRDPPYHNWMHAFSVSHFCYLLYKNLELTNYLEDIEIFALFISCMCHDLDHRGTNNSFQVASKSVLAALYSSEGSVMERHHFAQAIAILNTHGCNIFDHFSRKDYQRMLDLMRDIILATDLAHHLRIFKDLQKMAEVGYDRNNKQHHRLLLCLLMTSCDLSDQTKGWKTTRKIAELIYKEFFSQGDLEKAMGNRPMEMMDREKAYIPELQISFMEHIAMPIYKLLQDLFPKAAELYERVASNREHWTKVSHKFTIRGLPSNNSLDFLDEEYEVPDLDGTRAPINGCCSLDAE
T6 sequence (Q14432 679-1087): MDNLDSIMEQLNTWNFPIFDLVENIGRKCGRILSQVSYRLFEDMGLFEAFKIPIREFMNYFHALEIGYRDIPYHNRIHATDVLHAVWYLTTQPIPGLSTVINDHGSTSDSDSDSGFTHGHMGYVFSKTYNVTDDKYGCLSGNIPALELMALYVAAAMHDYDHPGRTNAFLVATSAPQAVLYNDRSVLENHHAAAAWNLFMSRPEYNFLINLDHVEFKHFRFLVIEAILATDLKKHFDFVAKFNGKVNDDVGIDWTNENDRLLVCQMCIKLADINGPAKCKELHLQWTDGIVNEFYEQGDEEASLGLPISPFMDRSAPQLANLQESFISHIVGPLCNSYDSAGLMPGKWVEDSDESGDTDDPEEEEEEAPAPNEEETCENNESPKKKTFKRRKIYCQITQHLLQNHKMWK
T9 sequence (O60658 480-820): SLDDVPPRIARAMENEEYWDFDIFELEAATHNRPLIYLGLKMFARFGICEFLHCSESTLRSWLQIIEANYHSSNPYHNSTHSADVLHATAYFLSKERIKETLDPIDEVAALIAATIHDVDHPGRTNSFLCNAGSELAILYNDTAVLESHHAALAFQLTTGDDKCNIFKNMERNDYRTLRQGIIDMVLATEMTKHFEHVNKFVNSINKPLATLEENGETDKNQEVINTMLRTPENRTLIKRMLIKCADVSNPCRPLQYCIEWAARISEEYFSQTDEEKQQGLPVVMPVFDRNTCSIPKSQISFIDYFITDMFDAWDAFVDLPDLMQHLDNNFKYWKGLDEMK
T4 sequence (Q01064 10-487 isoform Q01064-2): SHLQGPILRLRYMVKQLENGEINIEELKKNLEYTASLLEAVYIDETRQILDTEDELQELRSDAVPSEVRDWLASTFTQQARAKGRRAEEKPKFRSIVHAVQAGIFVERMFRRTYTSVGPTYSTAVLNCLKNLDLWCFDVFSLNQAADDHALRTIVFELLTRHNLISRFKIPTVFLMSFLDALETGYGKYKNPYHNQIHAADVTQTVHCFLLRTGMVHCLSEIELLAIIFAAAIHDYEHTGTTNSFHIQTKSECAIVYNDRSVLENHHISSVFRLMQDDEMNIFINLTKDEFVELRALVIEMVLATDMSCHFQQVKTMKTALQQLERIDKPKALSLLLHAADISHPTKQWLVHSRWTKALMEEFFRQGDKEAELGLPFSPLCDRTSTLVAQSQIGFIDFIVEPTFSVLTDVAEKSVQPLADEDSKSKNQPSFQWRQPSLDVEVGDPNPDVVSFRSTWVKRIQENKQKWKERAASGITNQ
T7 sequence (Q08499 388-715): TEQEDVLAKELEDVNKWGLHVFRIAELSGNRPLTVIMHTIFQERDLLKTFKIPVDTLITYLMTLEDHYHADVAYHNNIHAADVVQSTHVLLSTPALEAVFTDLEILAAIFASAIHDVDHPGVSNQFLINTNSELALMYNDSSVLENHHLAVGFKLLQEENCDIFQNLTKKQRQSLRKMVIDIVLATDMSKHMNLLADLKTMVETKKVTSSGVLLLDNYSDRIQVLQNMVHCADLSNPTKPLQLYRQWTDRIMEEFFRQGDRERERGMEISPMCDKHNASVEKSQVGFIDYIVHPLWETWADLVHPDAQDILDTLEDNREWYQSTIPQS
T3 sequence (P05067 672-713 limits assumed): as the sequence (P05067 672-713 limits assumed) above
T10 sequence (Q9Y233 714-1055): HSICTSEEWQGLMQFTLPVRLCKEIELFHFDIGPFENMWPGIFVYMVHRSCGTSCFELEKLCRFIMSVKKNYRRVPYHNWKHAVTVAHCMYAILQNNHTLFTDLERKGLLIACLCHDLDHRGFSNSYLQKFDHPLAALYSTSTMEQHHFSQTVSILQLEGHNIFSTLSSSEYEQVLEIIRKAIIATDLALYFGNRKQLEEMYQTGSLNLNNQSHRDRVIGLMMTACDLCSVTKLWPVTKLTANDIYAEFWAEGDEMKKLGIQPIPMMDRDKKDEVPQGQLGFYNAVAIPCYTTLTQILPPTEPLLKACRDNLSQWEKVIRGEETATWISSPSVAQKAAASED
Method for PDE10A2 (448–789): (§1) The enzymatic activities of the catalytic domains of PDE9 and other PDEs were measured by using cGMP or cAMP as substrates. The assay buffer contained 20–50 mM Tris–HCl (pH 7.5–8.0), 10 mM MgCl2 or 4 mM MnCl2, 1 mM DTT, and 10–20 nM ^3H-cGMP or ^3H-cAMP (20000–30000 cpm/assay, GE Healthcare). The reaction was performed at room temperature for 15 min and then terminated by the addition of 0.2 M ZnSO4. The addition of 0.25 M BaSO4 precipitated the generated ^3H-GMP, whereas the unreacted ^3H-cGMP remained in solution. The radioactivity in the supernatant was measured in 2.5 mL with an Ultim Gold liquid scintillation counter. […] The IC50 values were calculated by nonlinear regression method by using GraphPad Prism 5.0 Software.
Method for PDE1B2 (10–487): as §1
Method for PDE2A3 (580–941): as §1
Method for PDE3A (679–1087): as §1
Method for PDE4D2 (86–413): as §1
Method for PDE5A1 (535–860): as §1
Method for PDE7A1 (130–482): as §1
Method for PDE8A1 (480–820): as §1
Method for PDE9A2 (181–506): as §1

In turn, `C[C@H](NCc1ccccc1O)c1nc2c(cnn2C2CCCC2)c(=O)[nH]1` [Compound 18] returned a concentration for half-maximal inhibition (IC50) against PDE9A2 (181–506) of 114 ± 7 nM. Besides, in [1], the ORAC is 4.51 ± 0.43 μmol of Trolox equiv/μmol tested compound.

Consider `COc1ccc(/C=N/[C@H](C)c2nc3c(cnn3C3CCCC3)c(=O)[nH]2)c(O)c1` [Compound 13], for which the IC50 against PDE9A2 (181–506) was found to be 35 ± 3 nM. Also, the ORAC in series [1] was 0.15 ± 0.01 μmol of Trolox equiv/μmol tested compound.

In the case of `Oc1c(I)cc(Cl)c2cccnc12` [CQ, clioquinol, reference compound], the “oxygen radical absorbance capacity, ORAC-FL value” in [1] was determined as 0.62 ORAC-FL units. Moreover, the “inhibitory ratio of Cu^2+-induced Aβ1-42 aggregation (ThT)” value (shortened to “inhibitory ratio”) on Aβ1-42 [2] is listed as 52.5%. The “disaggregation of Cu^2+-induced Aβ1-42 fibrils (ThT)” value on Aβ1-42 fibrils is reported as 50.9%. At Aβ1-42 [3], the “Aβ fibrils by TEM, disaggregation of preformed fibrils” value is on record as “drastically reduced the amount of Aβ fibrils” and the “Aβ fibrils by TEM, inhibition of Cu^2+-induced aggregation” value is “fewer Aβ fibrils were detected”.

On to `C[C@@H](/N=C/c1cccc(Br)n1)c1nc2c(cnn2C2CCCC2)c(=O)[nH]1` [Compound 28], for which, on PDE9A2 (181–506), it took 1160 ± 90 nM to reach half-maximal inhibition (IC50). In addition, the ORAC in series [1] was 0 μmol of Trolox equiv/μmol tested compound.

At PDE9A2 (181–506), `COc1ccc(CN[C@H](C)c2nc3c(cnn3C3CCOCC3)c(=O)[nH]2)c(O)c1` [Compound 17] yielded an IC50 of 51 ± 2 nM. Further, the ORAC in [1] is on record as 5.13 ± 0.22 μmol of Trolox equiv/μmol tested compound. The Papp at 10 h, 100 μg/mL in series [4] (setting [6]) is 6.54 ± 0.76 ×10⁻⁶ cm/s. In addition, in series [4], the “prediction of penetration into the CNS” value is “CNS+ (Compounds of high BBB permeation (CNS+) Pe > 4.7)”.

With `CN(C)CCCN1c2ccccc2Sc2ccc(Cl)cc21` [Chlorpromazine, reference compound], in series [4], the Papp at 10 h, 100 μg/mL stood at 6 ± 0.3 ×10⁻⁶ cm/s.

In turn, `C[C@@H](NCc1cccc(Br)n1)c1nc2c(cnn2C2CCCC2)c(=O)[nH]1` [Compound 29] displayed an IC50 against PDE9A2 (181–506) of 38 ± 3 nM. In series [1], the ORAC is 0 μmol of Trolox equiv/μmol tested compound. Also, the “inhibitory ratio” value on Aβ1-42 [2] was 59.1%.

With `COc1ccc2[nH]cc(CCNC(C)=O)c2c1` [melatonin, reference compound], in [1], the “oxygen radical absorbance capacity, ORAC-FL value” turned out to be 2.00 ORAC-FL units.

Molecule `COc1ccc(/C=N/[C@H](C)c2nc3c(cnn3C3CCOCC3)c(=O)[nH]2)c(O)c1` [Compound 14] gave an IC50 against PDE9A2 (181–506) of 12 ± 1 nM. For the same molecule, the ORAC in series [1] is 0.22 ± 0.12 μmol of Trolox equiv/μmol tested compound.

As to `COc1cccc(CN[C@H](C)c2nc3c(cnn3C3CCCC3)c(=O)[nH]2)c1O` [Compound 20], at PDE9A2 (181–506), the half-maximal inhibitory concentration (IC50) stood at 33 ± 4 nM. Also, the ORAC in [1] is reported as 3.50 ± 0.01 μmol of Trolox equiv/μmol tested compound.

On to `COc1ccc(O)c(CN[C@H](C)c2nc3c(cnn3C3CCCC3)c(=O)[nH]2)c1` [Compound 19], for which, on PDE9A2 (181–506), the IC50 stood at 33 ± 3 nM. The ORAC in series [1] was 3.54 ± 0.25 μmol of Trolox equiv/μmol tested compound.

Take `C[C@@H](NCc1ccccc1O)c1nc2c(cnn2C2CCCC2)c(=O)[nH]1` [Compound 15]: the IC50 against PDE9A2 (181–506) came out at 58 ± 2 nM. Also, the ORAC in [1] is on record as 4.75 ± 0.72 μmol of Trolox equiv/μmol tested compound.

`Cc1cccc(CN[C@H](C)c2nc3c(cnn3C3CCCC3)c(=O)[nH]2)n1` [Compound 27] showed a half-inhibitory concentration (IC50) at PDE9A2 (181–506) of 60 ± 2 nM. Further, in series [1], the ORAC is 0 μmol of Trolox equiv/μmol tested compound.

With `C[C@@H](NCc1cc([N+](=O)[O-])ccc1O)c1nc2c(cnn2C2CCCC2)c(=O)[nH]1` [Compound 23], inhibition on PDE9A2 (181–506) was half-maximal at 36 ± 4 nM (IC50). Also, the ORAC in series [1] is given as 1.02 ± 0.05 μmol of Trolox equiv/μmol tested compound.

Take `C[C@@H](NCc1cc(F)ccc1O)c1nc2c(cnn2C2CCCC2)c(=O)[nH]1` [Compound 22]: the IC50 against PDE9A2 (181–506) is 31 ± 1 nM; on PDE1B2 (10–487), 7000 nM; against PDE2A3 (580–941), 13000 nM; against PDE3A (679–1087) it was above 10000 nM; against PDE4D2 (86–413), 11000 nM; against PDE5A1 (535–860), 1600 nM. Further, the 50% inhibitory concentration (IC50) was above 40000 nM against PDE7A1 (130–482), above 50000 nM against PDE8A1 (480–820) and 33000 nM against PDE10A2 (448–789). Moreover, the “fold of selectivity of PDE9 over PDE1B2” value on PDE1B2 (10–487) was 234 fold. Moreover, on PDE2A3 (580–941), the “fold of selectivity of PDE9 over PDE2A3” value is reported as 421 fold. Besides, the “fold of selectivity of PDE9 over PDE3A” value at PDE3A (679–1087) was found to be 323 fold. At PDE4D2 (86–413), the “fold of selectivity of PDE9 over PDE4D2” value came out at 355 fold. On PDE5A1 (535–860), the “fold of selectivity of PDE9 over PDE5A1” value turned out to be 50 fold. Moreover, on PDE7A1 (130–482), the “fold of selectivity of PDE9 over PDE7A1” value is above 1278 fold. For the same molecule, the “fold of selectivity of PDE9 over PDE8A1” value at PDE8A1 (480–820) is above 1598 fold. Moreover, in series [1], the ORAC is given as 5.52 ± 0.51 μmol of Trolox equiv/μmol tested compound. The same molecule gave a logP at 30 min in series [5] of 1.51. In addition, the Papp at 10 h, 100 μg/mL in [4] (setting [6]) came to 33.2 ± 4.76 ×10⁻⁶ cm/s. Further, the “prediction of penetration into the CNS” value in series [4] is “CNS+ (Compounds of high BBB permeation (CNS+) Pe > 4.7)”.

Take `C[C@H](NCc1ccccn1)c1nc2c(cnn2C2CCCC2)c(=O)[nH]1` [Compound 25]: on PDE9A2 (181–506), the IC50 is 310 ± 13 nM. The ORAC in [1] is given as 0 μmol of Trolox equiv/μmol tested compound.

In turn, `C[C@@H](NCc1cc(N(C)C)ccc1O)c1nc2c(cnn2C2CCCC2)c(=O)[nH]1` [Compound 24] showed an IC50 on PDE9A2 (181–506) of 47 ± 3 nM. Besides, in series [1], the ORAC is on record as 5.62 ± 0.02 μmol of Trolox equiv/μmol tested compound.

`C[C@@H](NCc1ccccn1)c1nc2c(cnn2C2CCCC2)c(=O)[nH]1` [Compound 26] gave an IC50 on PDE9A2 (181–506) of 77 ± 3 nM. In addition, in [1], the ORAC is 0 μmol of Trolox equiv/μmol tested compound.

For the molecule `C[C@@H](NCc1cc(Cl)ccc1O)c1nc2c(cnn2C2CCCC2)c(=O)[nH]1` [Compound 21], on PDE9A2 (181–506), the IC50 was determined as 47 ± 5 nM. In addition, the ORAC in series [1] is 5.84 ± 0.50 μmol of Trolox equiv/μmol tested compound. Besides, the “inhibitory ratio” value on Aβ1-42 [2] is recorded as 65.7%.

As for `C[C@@H](/N=C/c1ccccc1O)c1nc2c(cnn2C2CCCC2)c(=O)[nH]1` [Compound 12], the IC50 at PDE9A2 (181–506) turned out to be 211 ± 6 nM. Also, the ORAC in series [1] is on record as 0.23 ± 0.02 μmol of Trolox equiv/μmol tested compound.

A word on the IC50: it is the concentration that gives 50% inhibition. Read a low IC50 as greater potency in that assay. In general, logP refers to a log measure of how a compound divides between an organic and an aqueous phase.
